Four compounds from patent US7960374B2, “Tricyclic compounds, compositions, and methods useful in the treatment or prophylaxis of 5-HT6 receptor-related disorders” (Proximagen Limited, priority 2006, dated 2011) can be followed below.

The target of experiment [1] is T1, human 5-HT6 receptor (Homo sapiens, UniProt P50406).
T1 construct: expressed in transfected cells; host or cells: HEK293
As to the kind of experiment: 5-HT6 receptor binding assay ([3H]-LSD, SPA). Particulars: for Ki: [3H]-LSD as labeled ligand, membranes of HEK293 cells expressing human 5-HT6, read-out: Binding affinity (Ki) at the human 5-HT6 receptor.

The target of experiment [2] is T1, human 5-HT6 receptor. As to the kind of experiment: 5-HT6 intrinsic activity assay (inhibition of 5-HT induced increase in cAMP). It is filed as cell-based. As to conditions: read-out: Antagonist potency at the human 5-HT6 receptor, fKi (= IC50,corr). Here is the method: (b) 5-HT6 Intrinsic Activity Assay
Briefly, HEK293/5-HT6 cells were seeded in polylysine coated 96-well plates at a density of 25,000/well and grown in DMEM (Dulbecco's Modified Eagle Medium) (without phenol-red) containing 5% dialyzed Foetal Bovine Serum for 48 h at 37° C. in a 5% CO2 incubator. The medium was then aspirated and replaced by 0.1 ml assay medium (Hanks Balance Salt Solution containing 20 mM HEPES, 1.5 mM isobutylmethylxanthine and 1 mg/ml bovine serum albumin). After addition of test substances, 50 μl dissolved in assay medium, the cells were incubated for 10 min at 37° C. in a 5% CO2 incubator. The medium was again aspirated and the cAMP content was determined using a radioactive cAMP kit (Amersham Pharmacia Biotech, BIOTRAK RPA559).

Structures are written as SMILES.

T1 sequence (P50406 whole entry): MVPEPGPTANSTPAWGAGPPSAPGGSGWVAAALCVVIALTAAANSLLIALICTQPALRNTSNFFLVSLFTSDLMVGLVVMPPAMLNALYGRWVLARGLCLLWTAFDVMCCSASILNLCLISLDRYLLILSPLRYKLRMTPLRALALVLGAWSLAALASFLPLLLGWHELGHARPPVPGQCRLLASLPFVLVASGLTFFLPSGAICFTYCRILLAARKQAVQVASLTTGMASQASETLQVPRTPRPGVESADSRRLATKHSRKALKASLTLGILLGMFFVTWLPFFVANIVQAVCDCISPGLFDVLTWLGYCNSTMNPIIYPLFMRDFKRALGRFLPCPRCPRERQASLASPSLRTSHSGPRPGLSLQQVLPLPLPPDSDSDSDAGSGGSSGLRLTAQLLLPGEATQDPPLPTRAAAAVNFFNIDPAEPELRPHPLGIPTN

As for `CN1CCOc2ccc3c(ccn3S(=O)(=O)c3ccccc3)c2C1` [Example 5, 2-Methyl-8-(phenylsulfonyl)-1,3,4,8-tetrahydro-2H-[1,4]oxazepino[6,7-e]indole], the Ki at human 5-HT6 receptor [1] was found to be 2 nM. The IC50 on human 5-HT6 receptor [2] came out at 3 nM.

In the case of `NCCc1c[nH]c2ccc(O)cc12` [Example 5-HT, 5-hydroxytryptamine, reference compound], the Hill coefficient at human 5-HT6 receptor [1] (three experiments) is listed as 0.94 (SD 0.09).

As for `O=S(=O)(c1ccccc1)n1ccc2c3c(ccc21)OCCNC3` [Example 49, 8-(Phenylsulfonyl)-1,3,4,8-tetrahydro-2H-[1,4]oxazepino[6,7-e]indole], at human 5-HT6 receptor [1], the Ki was found to be 2 nM. The IC50 on human 5-HT6 receptor [2] stood at 5 nM.

On to `CN1CCOc2ccc3c(ccn3S(=O)(=O)c3ccc4ncsc4c3)c2C1` [Example 10, 8-(1,3-Benzothiazol-6-ylsulfonyl)-2-methyl-1,3,4,8-tetrahydro-2H-[1,4]oxazepino[6,7-e]indole], for which the Ki on human 5-HT6 receptor [1] amounted to 1 nM. Further, at human 5-HT6 receptor [2], the IC50 was 1 nM.
